Experiments:
CYP1A2 = molecular target: T1, CYP1A2 (Homo sapiens, UniProt P05177); assay: Cytochrome P450 inhibition assay (P450-Glo); format: in vitro ADME; conditions: 10 μM, result in words
T1 construct: purchased Corning; host or cells: baculovirus infected insect cells (BTI-TN-5B1-4)
T1 sequence (P05177 2-516 limits assumed): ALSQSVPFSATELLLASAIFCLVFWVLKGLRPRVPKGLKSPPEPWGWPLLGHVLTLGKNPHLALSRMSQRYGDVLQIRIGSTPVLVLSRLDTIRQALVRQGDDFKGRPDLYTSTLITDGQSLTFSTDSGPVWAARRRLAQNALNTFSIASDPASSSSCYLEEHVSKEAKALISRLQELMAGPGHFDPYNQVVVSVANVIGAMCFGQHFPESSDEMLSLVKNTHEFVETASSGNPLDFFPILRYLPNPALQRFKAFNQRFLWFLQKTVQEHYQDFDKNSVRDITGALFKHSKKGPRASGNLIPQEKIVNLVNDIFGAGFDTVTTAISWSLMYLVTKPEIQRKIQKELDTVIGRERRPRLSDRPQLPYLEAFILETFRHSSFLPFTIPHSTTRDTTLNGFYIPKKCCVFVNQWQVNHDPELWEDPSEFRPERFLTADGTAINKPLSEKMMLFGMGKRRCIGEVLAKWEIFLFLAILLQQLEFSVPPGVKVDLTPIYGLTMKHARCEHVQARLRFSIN
Procedure: (§1) Cytotoxicity was also determined against 786-O and A549 cells.
(§2) Experiments for determining pre-clinical in vitro ADME-Tox activities were performed as described by Moraes et al. and also described in the following sections 4.3.2.1 to 4.3.2.4.
(§3) The luminescence based P450-Glo™ (Promega Corp.) assay was used in 384-well assay format.
(§4) The cytochrome P450 (CYP) panel included microsomal preparations of cytochromes P450 1A2, 2C9, 2C19, 2D6, and 3A4 (Corning) from baculovirus infected insect cells (BTI-TN-5B1−4) which express cytochromes P450 and cytochrome c reductase (and cytochrome b5 for 3A4). Compounds were added (100 nL/well in 1% DMSO v/v) using the Echo 550® Liquid Handler followed by addition of 5 μL/well of CYP450/substrate mixture. Following incubation for 30 min at 37 °C, the reaction was initiated by the addition of 5 μL/well of the NADPH regeneration mixture. By the end of a further 30 min incubation (37 °C), the CYP450 reaction was stopped and the luciferase reaction was initiated by the addition of 10 μL/well of the luciferin detection reagent, followed by an additional 30 min of incubation at 37 °C. The luminescence signal was detected using an Infinite® M1000 PRO plate reader. […] The raw data were normalised relative to the positive and negative controls yielding the % inhibition for each compound.

CYP3A4 = molecular target: T2, CYP3A4 (Homo sapiens, UniProt P08684); assay: Cytochrome P450 inhibition assay (P450-Glo); format: in vitro ADME; conditions: 10 μM, result in words
T2 construct: purchased Corning; host or cells: baculovirus infected insect cells (BTI-TN-5B1-4)
Procedure: as §1, §2, §3, §4

CYP2C19 = molecular target: T3, CYP2C19 (Homo sapiens, UniProt P33261); assay: Cytochrome P450 inhibition assay (P450-Glo); format: in vitro ADME; conditions: 10 μM, result in words
T3 construct: purchased Corning; host or cells: baculovirus infected insect cells (BTI-TN-5B1-4)
Procedure: as §1, §2, §3, §4

CYP2D6 = molecular target: T4, CYP2D6 (Homo sapiens, UniProt P10635); assay: Cytochrome P450 inhibition assay (P450-Glo); format: in vitro ADME; conditions: 10 μM, result in words
T4 construct: purchased Corning; host or cells: baculovirus infected insect cells (BTI-TN-5B1-4)
Procedure: as §1, §2, §3, §4

CYP2C9 = molecular target: T5, CYP2C9 (Homo sapiens, UniProt P11712); assay: Cytochrome P450 inhibition assay (P450-Glo); format: in vitro ADME; conditions: 10 μM, result in words
T5 construct: purchased Corning; host or cells: baculovirus infected insect cells (BTI-TN-5B1-4)
Procedure: as §1, §2, §3, §4

hERG = molecular target: T6, hERG (Homo sapiens, UniProt Q12809); assay: hERG cardiotoxicity assay (Predictor hERG Fluorescence Polarisation); format: binding; conditions: 10 μM, result in words
T6 construct: purchased Invitrogen
Procedure: as §1, §2
The Invitrogen Predictor™ hERG Fluorescence Polarisation Assay was used in 384-well assay format. […] The plates were incubated for 2 h at 25 °C in a humidity-controlled incubator and the fluorescence polarisation was measured using an EnVision® multilabel 2103 reader. […] The raw data were normalised relative to the positive and negative controls yielding the % cardiotoxicity for each compound.

rhodesain = rhodesain (Trypanosoma brucei rhodesiense, UniProt Q95PM0); assay: STD and WaterLOGSY NMR protein-ligand interaction; format: binding; conditions: rhodesain 50 μM, compound 5 mM, 25 °C; corroborated by WaterLOGSY
Excerpt: In order to support the outcome observed from docking studies, protein-ligand interactions were probed via Saturation Transfer Difference (STD) and WaterLOGSY experiments. STD is an NMR technique where the protein is selectively saturated and, if the ligand is binding to the protein in the timescale of the experiment, the saturation gets transferred to the ligand via intermolecular NOE and only then it is possible to observe an NMR signal. WaterLOGSY relies on the detection of the intermolecular NOE between water (which is selectively irradiated) and the ligand. The sign of the NOE depends on the rotational correlation time of the molecule, thus large molecules such as proteins, have an opposite NOE sign than small molecules such as the pyrimidines investigated. If the pyrimidines bind to the protein, their rotational correlation time changes and the sign of the signals in the WaterLOGSY experiment will be opposite than in the absence of a binding protein. […] The WaterLOGSY results, which as expected is generally a more sensitive technique, further corroborate our findings. […]
All NMR studies were performed at 25 °C on a JEOL ECZ-R 600 MHz spectrometer equipped with a ROYAL room temperature probe. […] The spectra were processed and analysed using JEOL Delta software. […]

T2 sequence (P08684 2-503 limits assumed): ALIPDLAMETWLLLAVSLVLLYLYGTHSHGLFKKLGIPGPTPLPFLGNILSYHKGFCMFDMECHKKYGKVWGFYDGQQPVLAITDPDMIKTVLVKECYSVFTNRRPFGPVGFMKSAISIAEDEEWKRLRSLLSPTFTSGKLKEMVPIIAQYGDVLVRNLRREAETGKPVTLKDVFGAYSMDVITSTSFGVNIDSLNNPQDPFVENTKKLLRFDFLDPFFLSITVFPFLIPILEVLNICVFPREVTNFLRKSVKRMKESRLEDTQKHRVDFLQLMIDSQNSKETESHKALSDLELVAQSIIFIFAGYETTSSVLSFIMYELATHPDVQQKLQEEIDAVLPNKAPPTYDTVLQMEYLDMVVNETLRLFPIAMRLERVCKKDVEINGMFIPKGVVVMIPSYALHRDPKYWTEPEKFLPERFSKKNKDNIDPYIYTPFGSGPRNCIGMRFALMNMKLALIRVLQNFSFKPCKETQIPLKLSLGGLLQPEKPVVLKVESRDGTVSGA
T6 sequence (Q12809 whole entry): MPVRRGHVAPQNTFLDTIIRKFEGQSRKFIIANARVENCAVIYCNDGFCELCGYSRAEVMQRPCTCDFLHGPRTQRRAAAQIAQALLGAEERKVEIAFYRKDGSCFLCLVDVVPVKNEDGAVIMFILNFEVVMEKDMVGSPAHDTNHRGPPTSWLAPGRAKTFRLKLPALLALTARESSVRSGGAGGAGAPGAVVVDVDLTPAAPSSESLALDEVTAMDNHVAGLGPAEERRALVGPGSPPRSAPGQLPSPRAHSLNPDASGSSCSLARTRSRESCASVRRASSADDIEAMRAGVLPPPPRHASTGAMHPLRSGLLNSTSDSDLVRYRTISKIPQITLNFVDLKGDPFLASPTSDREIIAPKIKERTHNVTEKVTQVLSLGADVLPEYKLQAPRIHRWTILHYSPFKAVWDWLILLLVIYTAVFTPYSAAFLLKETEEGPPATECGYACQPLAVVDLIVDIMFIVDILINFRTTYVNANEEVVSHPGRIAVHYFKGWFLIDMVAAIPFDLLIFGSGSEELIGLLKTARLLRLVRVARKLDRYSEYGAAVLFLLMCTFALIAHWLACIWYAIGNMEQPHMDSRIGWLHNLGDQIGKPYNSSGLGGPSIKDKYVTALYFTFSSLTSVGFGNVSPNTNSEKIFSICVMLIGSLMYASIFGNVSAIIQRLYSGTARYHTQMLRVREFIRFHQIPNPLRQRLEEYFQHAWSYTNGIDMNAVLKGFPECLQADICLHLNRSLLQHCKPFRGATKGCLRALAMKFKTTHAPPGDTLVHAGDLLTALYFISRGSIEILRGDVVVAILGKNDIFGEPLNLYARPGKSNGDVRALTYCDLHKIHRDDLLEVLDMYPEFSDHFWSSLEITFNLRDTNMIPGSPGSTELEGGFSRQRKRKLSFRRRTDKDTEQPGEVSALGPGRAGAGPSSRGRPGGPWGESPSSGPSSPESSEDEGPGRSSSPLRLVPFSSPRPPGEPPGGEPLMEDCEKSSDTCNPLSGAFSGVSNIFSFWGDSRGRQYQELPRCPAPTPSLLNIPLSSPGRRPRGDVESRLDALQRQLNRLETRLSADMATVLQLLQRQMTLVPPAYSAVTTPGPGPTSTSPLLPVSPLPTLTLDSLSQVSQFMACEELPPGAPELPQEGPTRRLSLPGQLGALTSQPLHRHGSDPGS
T3 sequence (P33261 whole entry): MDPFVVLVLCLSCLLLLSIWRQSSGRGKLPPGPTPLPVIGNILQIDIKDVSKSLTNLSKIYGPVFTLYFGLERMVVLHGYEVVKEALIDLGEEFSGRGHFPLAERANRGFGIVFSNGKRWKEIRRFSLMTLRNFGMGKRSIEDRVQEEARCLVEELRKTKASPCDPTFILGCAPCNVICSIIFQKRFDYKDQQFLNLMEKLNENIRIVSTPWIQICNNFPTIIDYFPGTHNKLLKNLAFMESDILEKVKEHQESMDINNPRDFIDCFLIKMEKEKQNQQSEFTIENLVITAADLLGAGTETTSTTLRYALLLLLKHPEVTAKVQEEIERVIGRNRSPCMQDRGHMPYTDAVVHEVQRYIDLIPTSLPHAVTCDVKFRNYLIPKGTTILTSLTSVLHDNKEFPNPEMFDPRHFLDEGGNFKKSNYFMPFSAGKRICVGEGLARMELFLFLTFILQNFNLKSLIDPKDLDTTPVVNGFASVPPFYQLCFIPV
T5 sequence (P11712 whole entry): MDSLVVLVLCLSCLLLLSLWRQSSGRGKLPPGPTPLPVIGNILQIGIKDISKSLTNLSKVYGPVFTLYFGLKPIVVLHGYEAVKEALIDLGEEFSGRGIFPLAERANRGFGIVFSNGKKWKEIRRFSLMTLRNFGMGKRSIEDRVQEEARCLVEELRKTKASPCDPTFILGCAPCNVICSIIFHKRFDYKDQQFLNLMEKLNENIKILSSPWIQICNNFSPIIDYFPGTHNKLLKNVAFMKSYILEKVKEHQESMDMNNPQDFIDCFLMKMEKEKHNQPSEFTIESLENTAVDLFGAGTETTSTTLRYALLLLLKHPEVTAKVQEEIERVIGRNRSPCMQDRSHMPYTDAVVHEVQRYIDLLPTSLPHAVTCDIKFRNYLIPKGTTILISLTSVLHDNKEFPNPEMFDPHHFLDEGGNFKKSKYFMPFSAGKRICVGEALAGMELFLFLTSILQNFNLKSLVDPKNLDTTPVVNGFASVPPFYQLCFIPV
Sequence of rhodesain (Q95PM0 entry or part of it): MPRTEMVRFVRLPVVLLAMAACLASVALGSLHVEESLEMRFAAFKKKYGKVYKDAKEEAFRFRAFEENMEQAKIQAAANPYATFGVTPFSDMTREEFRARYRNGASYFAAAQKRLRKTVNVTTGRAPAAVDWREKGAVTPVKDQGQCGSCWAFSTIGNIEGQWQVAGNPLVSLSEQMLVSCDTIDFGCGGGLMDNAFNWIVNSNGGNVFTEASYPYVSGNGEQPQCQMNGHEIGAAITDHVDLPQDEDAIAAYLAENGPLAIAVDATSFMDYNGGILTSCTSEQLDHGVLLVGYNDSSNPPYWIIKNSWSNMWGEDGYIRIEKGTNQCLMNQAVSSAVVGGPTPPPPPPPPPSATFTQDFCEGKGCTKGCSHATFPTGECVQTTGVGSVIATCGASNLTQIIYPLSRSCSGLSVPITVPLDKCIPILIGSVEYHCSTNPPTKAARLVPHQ
T4 sequence (P10635 whole entry): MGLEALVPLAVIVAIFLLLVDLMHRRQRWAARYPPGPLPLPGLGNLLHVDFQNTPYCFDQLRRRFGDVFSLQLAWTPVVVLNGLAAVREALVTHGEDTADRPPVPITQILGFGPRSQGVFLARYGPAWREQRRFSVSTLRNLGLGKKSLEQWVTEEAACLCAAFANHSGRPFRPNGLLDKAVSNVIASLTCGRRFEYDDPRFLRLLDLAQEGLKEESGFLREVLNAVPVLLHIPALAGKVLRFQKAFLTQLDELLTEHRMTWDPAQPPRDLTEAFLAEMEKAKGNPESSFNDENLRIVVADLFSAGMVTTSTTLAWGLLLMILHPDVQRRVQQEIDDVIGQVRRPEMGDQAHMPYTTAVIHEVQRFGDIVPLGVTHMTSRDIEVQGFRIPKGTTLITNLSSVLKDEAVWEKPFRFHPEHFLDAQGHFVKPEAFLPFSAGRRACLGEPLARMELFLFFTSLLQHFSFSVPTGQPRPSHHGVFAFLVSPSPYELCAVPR

Q: With COc1ccccc1-c1cc(-c2cccnc2)nc(N)n1 [Compound 13, 4-(2-Methoxyphenyl)-6-(pyridin-3-yl)pyrimidin-2-amine] as the compound, how does the melting point read?
A: The melting point was 108 to 110 °C.

Q: What about the CYP1A2 inhibition (CYP1A2) of the same compound?
A: The CYP1A2 inhibition was “inhibitory activity”.

Q: What about the CYP3A4 inhibition (CYP3A4) of the same compound?
A: The CYP3A4 inhibition was “favourable results”.

Q: What about the CYP2C19 inhibition (CYP2C19) of the same compound?
A: The CYP2C19 inhibition was “some inhibition”.

Q: What about the CYP2D6 inhibition (CYP2D6) of the same compound?
A: The CYP2D6 inhibition was “favourable results”.

Q: What about the CYP2C9 inhibition (CYP2C9) of the same compound?
A: Its CYP2C9 inhibition is “some inhibition”.

Q: What about the hERG cardiotoxicity (hERG) of the same compound?
A: Its hERG cardiotoxicity is “no notable”.

Q: And the “binding to rhodesain by STD NMR” value (rhodesain)?
A: Its value is “confirming binding to rhodesain”.

Source: PMC7762786, “The discovery of novel antitrypanosomal 4-phenyl-6-(pyridin-3-yl)pyrimidines” (European Journal of Medicinal Chemistry, 2021)
